Results as given in PMC9532558 (Acta Pharmaceutica Sinica. B, 2022).

Target: ATP6V0D1 (V-ATPase V0 domain subunit d1) (Homo sapiens, UniProt P61421)
Assay: SPR
Type: binding

Sequence of ATP6V0D1 (V-ATPase V0 domain subunit d1) (P61421 whole entry, the tested form may be a part): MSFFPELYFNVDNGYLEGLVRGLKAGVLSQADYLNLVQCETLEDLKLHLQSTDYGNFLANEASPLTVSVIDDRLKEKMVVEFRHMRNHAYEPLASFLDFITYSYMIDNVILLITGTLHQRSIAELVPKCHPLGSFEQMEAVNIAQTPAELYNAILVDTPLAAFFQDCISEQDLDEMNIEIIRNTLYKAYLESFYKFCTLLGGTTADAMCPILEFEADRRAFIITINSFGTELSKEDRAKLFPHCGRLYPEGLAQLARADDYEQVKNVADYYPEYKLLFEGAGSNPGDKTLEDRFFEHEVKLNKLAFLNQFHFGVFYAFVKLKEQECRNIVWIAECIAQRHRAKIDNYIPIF

Kd: 2 µM
SMILES: COc1cc2c(c(OC)c1OC)-c1c(cc(OC)c(OC)c1OC)C[C@](C)(O)[C@@H](C)C2 [SolA, Schisandrol A]
